# Marks after values point to notes of the source that are not given here.
# How the values were obtained:
# physchem = details: 25 °C, thermodynamic from solid
# [1] = Beagle, in vivo, po; for Dog F % (suspension): pH 2
# [2] = 1.0% DMSO, 24-hour incubation at ambient temperature, maximum theoretical compound concentration 100 μM; for pH 2 solubility: 0.1N HCL; for pH 7 solubility: 1×PBS buffer (pH 7.4)
# [3] = fasted state simulated intestinal fluid (FaSSIF), fassif
# [4] = fed state simulated intestinal fluid (FeSSIF), fessif
Structure (SMILES),solubility (physchem; [3]) [µg/mL],solubility (physchem; [4]) [µg/mL],Dog F % (solution) [1],pH 2 solubility [2] [μM],pH 7 solubility [2] [μM],Dog F % (suspension) [1] [%],solubility (physchem; fassif) [µg/mL],solubility (physchem; fessif) [µg/mL]
"CC(C)(C#Cc1ccc(-c2ccc(Cl)c3c(N(C(=O)CCC(=O)OCOP(=O)(O)O)S(C)(=O)=O)nn(CC(F)(F)F)c23)c([C@H](Cc2cc(F)cc(F)c2)NC(=O)Cn2nc(C(F)(F)F)c3c2C(F)(F)[C@@H]2C[C@H]32)n1)S(C)(=O)=O [Compound 28, (phosphonooxy)methyl 4-(N-(4-chloro-7-(2-((S)-1-(2-((3bS,4aR)-5,5-difluoro-3-(trifluoromethyl)-3b,4,4a,5-tetrahydro-1H-cyclopropa[3,4]cyclopenta[1,2-c]pyrazol-1-yl)acetamido)-2-(3,5-difluorophenyl)ethyl)-6-(3-methyl-3-(methylsulfonyl)but-1-yn-1-yl)pyridin-3-yl)-1-(2,2,2-trifluoroethyl)-1H-indazol-3-yl)methylsulfonamido)-4-oxobutanoate]",555,319,51^b %,1,86,,,
"CC(C)(C#Cc1ccc(-c2ccc(Cl)c3c(N(C(=O)CCCN(CC(=O)O)C(=O)OCOP(=O)(O)O)S(C)(=O)=O)nn(CC(F)(F)F)c23)c([C@H](Cc2cc(F)cc(F)c2)NC(=O)Cn2nc(C(F)(F)F)c3c2C(F)(F)[C@@H]2C[C@H]32)n1)S(C)(=O)=O [Compound 30, N-(4-(N-(4-chloro-7-(2-((S)-1-(2-((3bS,4aR)-5,5-difluoro-3-(trifluoromethyl)-3b,4,4a,5-tetrahydro-1H-cyclopropa[3,4]cyclopenta[1,2-c]pyrazol-1-yl)acetamido)-2-(3,5-difluorophenyl)ethyl)-6-(3-methyl-3-(methylsulfonyl)but-1-yn-1-yl)pyridin-3-yl)-1-(2,2,2-trifluoroethyl)-1H-indazol-3-yl)methylsulfonamido)-4-oxobutyl)-N-(((phosphonooxy)methoxy)carbonyl)glycine]",> 1100,5830,18^c %,1,100,18,,
"CC(C)(C#Cc1ccc(-c2ccc(Cl)c3c(N(C(=O)CCCN(CCC(=O)O)C(=O)OCOP(=O)(O)O)S(C)(=O)=O)nn(CC(F)(F)F)c23)c([C@H](Cc2cc(F)cc(F)c2)NC(=O)Cn2nc(C(F)(F)F)c3c2C(F)(F)[C@@H]2C[C@H]32)n1)S(C)(=O)=O [Compound 31, 3-((4-(N-(4-chloro-7-(2-((S)-1-(2-((3bS,4aR)-5,5-difluoro-3-(trifluoromethyl)-3b,4,4a,5-tetrahydro-1H-cyclopropa[3,4]cyclopenta[1,2-c]pyrazol-1-yl)acetamido)-2-(3,5-difluorophenyl)ethyl)-6-(3-methyl-3-(methylsulfonyl)but-1-yn-1-yl)pyridin-3-yl)-1-(2,2,2-trifluoroethyl)-1H-indazol-3-yl)methylsulfonamido)-4-oxobutyl)(((phosphonooxy)methoxy)carbonyl)amino)propanoic acid]",2930,902,,1,79,15,,
"CN(CCCC(=O)N(c1nn(CC(F)(F)F)c2c(-c3ccc(C#CC(C)(C)S(C)(=O)=O)nc3[C@H](Cc3cc(F)cc(F)c3)NC(=O)Cn3nc(C(F)(F)F)c4c3C(F)(F)[C@@H]3C[C@H]43)ccc(Cl)c12)S(C)(=O)=O)C(=O)OCOP(=O)(O)O [Compound 32, (phosphonooxy)methyl (4-(N-(4-chloro-7-(2-((S)-1-(2-((3bS,4aR)-5,5-difluoro-3-(trifluoromethyl)-3b,4,4a,5-tetrahydro-111-cyclopropa[3,4]cyclopenta [1,2-c]pyrazol-1-yl)acetamido)-2-(3,5-difluorophenyl)ethyl)-6-(3-methyl-3-(methylsulfonyl)but-1-yn-1-yl)pyridin-3-yl)-1-(2,2,2-trifluoroethyl)-1H-indazol-3-yl)methylsulfonamido)-4-oxobutyl)(methyl)carbamate]",194,210,31^b %,1,100,,,
"CC(C)(C#Cc1ccc(-c2ccc(Cl)c3c(N(C(=O)CCCNC(=O)OCOP(=O)(O)O)S(C)(=O)=O)nn(CC(F)(F)F)c23)c([C@H](Cc2cc(F)cc(F)c2)NC(=O)Cn2nc(C(F)(F)F)c3c2C(F)(F)[C@@H]2C[C@H]32)n1)S(C)(=O)=O [Compound 33, (phosphonooxy)methyl (4-(N-(4-chloro-7-(2-((S)-1-(2-((3bS,4aR)-5,5-difluoro-3-(trifluoromethyl)-3b,4,4a,5-tetrahydro-111-cyclopropa[3,4]cyclopenta[1,2-c]pyrazol-1-yl)acetamido)-2-(3,5-difluorophenyl)ethyl)-6-(3-methyl-3-(methylsulfonyl)but-1-yn-1-yl)pyridin-3-yl)-1-(2,2,2-trifluoroethyl)-1H-indazol-3-yl)methylsulfonamido)-4-oxobutyl)carbamate]",326,300,33^b %,1,75,17,,
"CC(C)(CNC(=O)OCOP(=O)(O)O)CC(=O)N(c1nn(CC(F)(F)F)c2c(-c3ccc(C#CC(C)(C)S(C)(=O)=O)nc3[C@H](Cc3cc(F)cc(F)c3)NC(=O)Cn3nc(C(F)(F)F)c4c3C(F)(F)[C@@H]3C[C@H]43)ccc(Cl)c12)S(C)(=O)=O [Compound 41, (phosphonooxy)methyl (4-(N-(4-chloro-7-(2-((S)-1-(2-((3bS,4aR)-5,5-difluoro-3-(trifluoromethyl)-3b,4,4a,5-tetrahydro-111-cyclopropa[3,4]cyclopenta[1,2-c]pyrazol-1-yl)acetamido)-2-(3,5-difluorophenyl)ethyl)-6-(3-methyl-3-(methylsulfonyl)but-1-yn-1-yl)pyridin-3-yl)-1-(2,2,2-trifluoroethyl)-1H-indazol-3-yl)methylsulfonamido)-2,2-dimethyl-4-oxobutyl)carbamate]",1140,440,,1,100,4,,
"CC(C)(CC(=O)N(c1nn(CC(F)(F)F)c2c(-c3ccc(C#CC(C)(C)S(C)(=O)=O)nc3[C@H](Cc3cc(F)cc(F)c3)NC(=O)Cn3nc(C(F)(F)F)c4c3C(F)(F)[C@@H]3C[C@H]43)ccc(Cl)c12)S(C)(=O)=O)CN(CC(=O)O)C(=O)OCOP(=O)(O)O [Compound 42, N-(4-(N-(4-chloro-7-(2-((S)-1-(2-((3bS,4aR)-5,5-difluoro (trifluoromethyl)-3b,4,4a,5-tetrahydro-1H-cyclopropa[3,4]cyclopenta[1,2-c]pyrazolyl)acetamido)-2-(3,5-difluorophenyl)ethyl)-6-(3-methyl-3-(methylsulfonyl)but-1-ynyl)pyridin-3-yl)-1-(2,2,2-trifluoroethyl)-1H-indazol-3-yl)methylsulfonamido)-2,2-dimethyl-4-oxobutyl)-N-(((phosphonooxy)methoxy)carbonyl)glycine]",,,,1,100,9,,
"Cc1cc(CC(=O)O)cc(OP(=O)(O)O)c1C(C)(C)CC(=O)N(c1nn(CC(F)(F)F)c2c(-c3ccc(C#CC(C)(C)S(C)(=O)=O)nc3[C@H](Cc3cc(F)cc(F)c3)NC(=O)Cn3nc(C(F)(F)F)c4c3C(F)(F)[C@@H]3C[C@H]43)ccc(Cl)c12)S(C)(=O)=O [Compound 47, 2-(4-(4-(N-(4-chloro-7-(2-((S)-1-(2-((3bS,4aR)-5,5-difluoro (trifluoromethyl)-3b,4,4a,5-tetrahydro-1H-cyclopropa[3,4]cyclopenta[1,2-c]pyrazolyl)acetamido)-2-(3,5-difluorophenyl)ethyl)-6-(3-methyl-3-(methylsulfonyl)but-1-ynyl)pyridin-3-yl)-1-(2,2,2-trifluoroethyl)-1H-indazol-3-yl)methylsulfonamido)-2-methyloxobutan-2-yl)-3-methyl-5-(phosphonooxy)phenyl)acetic acid]",,,,,,7,1420,226
"Cc1cc(C)c(C(C)(C)CC(=O)N(c2nn(CC(F)(F)F)c3c(-c4ccc(C#CC(C)(C)S(C)(=O)=O)nc4[C@H](Cc4cc(F)cc(F)c4)NC(=O)Cn4nc(C(F)(F)F)c5c4C(F)(F)[C@@H]4C[C@H]54)ccc(Cl)c23)S(C)(=O)=O)c(OP(=O)(O)O)c1 [Compound 48, 2-(4-(N-(4-chloro-7-(2-((S)-1-(2-03bS,4aR)-5,5-difluoro (trifluoromethyl)-3b,4,4a,5-tetrahydro-1H-cyclopropa[3,4]cyclopenta[1,2-c]pyrazolyl)acetamido)-2-(3,5-difluorophenyl)ethyl)-6-(3-methyl-3-(methylsulfonyl)but-1-ynyl)pyridin-3-yl)-1-(2,2,2-trifluoroethyl)-1H-indazol-3-yl)methylsulfonamido)-2-methyl oxobutan-2-yl)-3,5-dimethylphenyl dihydrogen phosphate]",,,60^b %,,,16,777,948
"Cc1cc(CP(=O)(O)O)c(C(C)(C)CC(=O)N(c2nn(CC(F)(F)F)c3c(-c4ccc(C#CC(C)(C)S(C)(=O)=O)nc4[C@H](Cc4cc(F)cc(F)c4)NC(=O)Cn4nc(C(F)(F)F)c5c4C(F)(F)[C@@H]4C[C@H]54)ccc(Cl)c23)S(C)(=O)=O)c(OP(=O)(O)O)c1 [Compound 55, (2-(4-(N-(4-chloro-7-(2-((S)-1-(2-((3bS,4aR)-5,5-difluoro-3-(trifluoromethyl)-3b,4,4a,5-tetrahydro-1H-cyclopropa[3,4]cyclopenta[1,2-c]pyrazol-1-yl)acetamido)-2-(3,5-difluorophenyl)ethyl)-6-(3-methyl-3-(methylsulfonyl)but-1-yn-1-yl)pyridin-3-yl)-1-(2,2,2-trifluoroethyl)-1H-indazol-3-yl)methylsulfonamido)-2-methyl-4-oxobutan-2-yl)-5-methyl-3-(phosphonooxy)benzyl)phosphonic acid]",,,33 ^c %,,,,> 10000,
